Test results taken from patent US12239125B2, “Compositions for organ preservation” (SigmaDrugs Kutató Korlátolt Felelösségü Társaság, priority 2016, dated 2025).
Where a name gives a salt, the structure may show the parent alone.

What was measured:
[1] = tested on: mitochondrial functions (liver); conditions: administered to rats or used in the preservation liquid of isolated liver; cited from earlier work
isolated kidney = assay: Rat model of kidney cold ischemia (cold perfusion and storage of isolated kidney); conditions: for mRNA levels of BAX / mRNA levels of Bcl-2: stored kidneys; for mRNA levels of BAX: difference not statistically significant; for reducing, delaying or preventing functional and/or structural damage of a stored organ or tissue (comparison of the three agonists): fluvoxamine, SA-4503 and PRE-84 compared
Experimental: Male Wistar rats were anesthetized with isoflurane (3% vol/vol) mixed with synthetic air (1 L/min) before surgery and placed on a temperature-controlled table to maintain core body temperature. Kidneys (n=6/group) were washed through the renal arteries with 5 ml cold solution, then removed from the animal and placed into a container filled with the same solution for either 2 or 3 hours. […] 3h CP); (viii) Custodiol containing 0.003 mg/mL FLU, 3 hours of cold perfusion (Cust. […] After cold ischemia kidneys were immediately snap-frozen in liquid nitrogen and stored at −80° C. or fixed in buffered 8% formalin for further processing.
Kidneys were fixed in 8% formalin, embedded into paraffin and 5 μm sections were stained with periodic acid-Schiff (PAS) to assess tubular injury. Images were taken with Panoramic Viewer (3[…] Ltd., Budapest, Hungary). Tubular luminal areas were measured in three fields of magnification ×200 per rat. The analysis was performed in a double-blinded fashion with computer-assisted morphometry using Adobe Photoshop CS6 (Adobe Systems Corporation, San José, Calif., USA) and Image J (National Institute of Health, Bethesda, MD, USA) softwares on a Zeiss Axiolmager A1 light-microscope (Carl Zeiss A G, Jena, Germany).
Total RNA was isolated from kidneys with GeneAid Total RNA Mini Kit (Geneaid Biotech Ltd., New Taipei City, Taiwan). 500 ng RNA was reverse-transcribed using Maxima First Strand cDNA Synthesis Kit for RT-qPCR (Thermo Scientific, Waltham, MA, USA) to generate first-strand cDNA. mRNA expressions of Ngal (Lcn2), Kim1, Mcp1, IL-1α (Il1α), IL-6 (Il6), IL-10 (Il10), TNF-α (Tnf), HO-1 (Hmox1), Bax, Bcl-2 (Bcl2), 18S ribosomal RNA (Rn18s) and β-actin (Actb) were determined with real-time RT-PCR using Light Cycler 480 SYBR Green 1 Master enzyme mix on a Light Cycler system (Roche Diagnostics, Mannheim, Germany). The reaction mix contained 10 pmol/μl of each PCR primer (Table 1; Integrated DNA Technologies Inc., Coralville, IA, USA), 10 μl of Light Cycler 480 SYBR Green 1 Master enzyme mix and 1 μl of cDNA sample. The conditions of the PCRs were as follows: 1 cycle at 95° C. for 5 minutes, followed by 70 cycles under the appropriate PCR conditions. Quantification was performed with the second-derivative method by monitoring the cycle number at which the fluorescent sign could be distinguished from the background. Results were analyzed with Light Cycler 480 software version 1.5.0.39 (Roche Diagnostics, Mannheim, Germany). The mRNA expression of each gene was determined by comparison to 18S ribosomal RNA as housekeeping gene from the same sample.
All reagents for Western blotting were purchased from Bio-Rad Laboratories, Hercules, CA, USA unless stated otherwise. Tissue samples were lysed in buffer containing leupeptin, aprotinin, Triton X-100, Tris-HCl, Ethylene glycol-bis (2-aminoethylether),N,N,N′,N′-tetraacetic-acid, NaF, Phenylmethylsulphonylfluoride and Na-orthovanadate (each substance were purchased from Sigma-Aldrich Co., St. Louis, MO, USA). Protein concentrations were determined using Bradford assay. […] Pre-stained protein mixture was used as marker of molecular mass. The separated proteins were transferred into nitrocellulose membranes. Non-specific binding sites were blocked in 5% non-fat dry milk containing blot solution. Membranes were incubated with monoclonal antibody specific to rat cleaved caspase-3 (Asp175) (Cell Signaling Technology, Danvers, MA, USA) diluted to 1:1000. Blots were washed and incubated (1 hour, room temperature) with peroxidase-conjugated goat anti-rabbit IgG secondary antibody (Cell Signaling Technology, Danvers, MA, USA) diluted to 1:4000. […] Bands were analyzed with Quantity One software version 4.6.9. Protein abundance was represented as Integrated Optical Density (IOD)/Ponceau S compared to controls.
Data were analyzed using GraphPad Prism software (GraphPad Software Inc., La Jolla, CA, USA).

PCP receptors = conditions: cited from earlier work
autotransplanted kidney = assay: Rat model of kidney isograft autotransplantation (ATx) after cold storage in preservation solution; assay type: in vivo; conditions: for Kidney function / serum AST levels / serum creatinine levels: vs preservation solution without S1R agonist; for NGAL levels: compared to Custodiol; for Tubular lumen areas (tubular dilatation): vs standard preservation solution, PAS-stained sections
Experimental: The institutional committee on animal welfare approved all experiments. Experiments were performed on Male Wistar rats weighing 205±15 g (Toxi-Coop Toxicological Research Center, Dunakeszi, Hungary). Animals were housed in a temperature-controlled (22±1° C.) room with alternating light and dark cycles and had free access to standard rat chow and water. Male Wistar rats (n=8/group) were anesthetized with isoflurane (3% vol/vol) mixed with synthetic air (1 L/min) before surgery and placed on a temperature-controlled table to maintain core body temperature. Left kidneys were perfused with cold Custodiol perfusion solution (Na^+: 15 mmol/L; K^+: 9 mmol/L; Mg^2+: 4 mmol/L; Ca^2+: 0.015 mmol/L; histidine: 198 mmol/L; tryptophan: 2 mmol/L; ketoglutarate: 1 mmol/L; mannitol: 30 mmol/L) (Franz Kohler Chemie GMBH, Bensheim, Germany), then removed from the animal: kidneys were placed into a container for 2 hours filled with either (i) cold Custodiol perfusion solution (ATx) or (ii) cold Custodiol perfusion solution containing 0.003 mg/mL FLU (ATx FLU) or (iii) cold Custodiol perfusion solution containing 0.003 mg/mL SA4503 (ATx SA). After 2 hours kidneys were placed back into the rats and end-to-end anastomoses of the renal artery, vein and ureter were performed. […] Total warm ischemia time was 35 min in all animals. Sham operated animals served as controls. After 24 hours of reperfusion, blood samples were collected from the abdominal aorta, the remnant kidneys were harvested, instantly snap-frozen in liquid nitrogen, and stored at -80° C. or fixed in buffered 8% formalin for further processing. The experimental design of the autotransplantation is shown in FIG. 9 Metabolic (glucose, fructosamine, total and HDL-cholesterol, triglycerides) and renal functional parameters from rat sera (sodium, potassium, creatinine, blood urea nitrogen (BUN), aspartate transaminase (AST)) were determined with commercially available kits on a Hitachi 912 photometric chemistry analyzer. Kidneys were fixed in 8% formalin, embedded into paraffin and 5 μm sections were stained with periodic acid-Schiff (PAS) to assess tubular injury. Images were taken with Panoramic Viewer (3[…] Ltd., Budapest, Hungary). Tubular luminal areas were measured in three fields of magnification ×200 per rat. The analysis was performed in a double-blinded fashion with computer-assisted morphometry using Adobe Photoshop CS6 (Adobe Systems Corporation, San José, Calif., USA) and Image J (National Institute of Health, Bethesda, MD, USA) softwares on a Zeiss Axiolmager A1 light-microscope (Carl Zeiss A G, Jena, Germany). Formalin-fixed kidney samples were embedded into paraffin. 5 μm thick sections were mounted on Superfrost slides (Thermo Shandon, Runcorn, UK) and were manually deparaffinized. Assay was performed using the Apoptag® Peroxidase In situ Apoptosis Detection Kit (Millipore, Billerica, MA, USA). Briefly, samples were pretreated with Proteinase K for 15 min. Following repeated washing steps endogenous peroxidase activity was blocked by 3% H2O2 in methanol for 5 min at room temperature. Next, slides were incubated in reaction buffer containing 30% TdT enzyme for 1 hour at room temperature after which Stop buffer was added. Slides were incubated with anti-Dioxigenin Conjugate for 30 min at room temperature. Slides were developed using DAB peroxidase substrate. The areas of TUNEL-positive apoptotic nuclei were measured in three fields of magnification ×200 per rat. The analysis was performed using Adobe Photoshop CS6 (Adobe Systems Corporation, San José, Calif., USA) and Image J (National Institute of Health, Bethesda, MD, USA) softwares on a Zeiss Axiolmager A1 light-microscope (Carl Zeiss A G, Jena, Germany). Formalin-fixed kidney samples were embedded into paraffin. One to two micron thick sections were mounted on Superfrost slides (Thermo Shandon, Runcorn, UK) and were manually deparaffinized. Endogenous peroxidase activity was blocked by 3% H2O2 in methanol for 20 min at room temperature. […]

[2] = isolated kidneys stored in Custodiol, vs vehicle
[3] = 2 h cold storage in Custodiol with 0.003 mg/mL compound, ATx, 24 hours of reperfusion
[4] = transplantation after storage, vs vehicle
[5] = stored and subsequently transplanted kidney

## COc1ccc(CN2CCN(Cc3ccccc3)CC2)c(O)c1OC [BHDP, N-benzyl-N′-(2-hydroxy-3,4-dimethoxybenzyl)-piperazine]
[1]
  mitochondrial functions: protected mitochondrial functions

## CCCN(CCC)CCc1ccc(OC)c(OCCc2ccccc2)c1 [NE100, N-dipropyl-2-[4-methoxy-3-(2-phenylethoxy)-phenyl]-ethylamine monohydrochloride]
Isolated kidney
  KIM-1 levels: effect of adding S1R antagonist to fluvoxamine: diminished the protective effect of fluvoxamine

## O=C(OCCN1CCOCC1)C1(c2ccccc2)CCCCC1 [PRE-084, 2-morpholin-4-dylethyl 1-phenylcyclohexane-1-carboxylate]
PCP receptors
  IC50: > 100 µM
Isolated kidney; [2]
  KIM-1 levels: inhibited the increase of KIM-1
Isolated kidney
  mRNA levels of BAX: decreased

## COc1ccc(CCN2CCN(CCCc3ccccc3)CC2)cc1OC [SA 4503, 1-[2-(3,4-Dimethoxyphenyl)ethyl]-4-(3-phenylpropyl)piperazine]
Isolated kidney; [2]
  KIM-1 levels: inhibited the increase of KIM-1
Isolated kidney
  mRNA levels of Bcl-2: no such effect
  mRNA levels of BAX: decreased
Autotransplanted kidney; [3]
  BUN (Blood urea nitrogen) levels: significantly decreased
  Kidney function: substantially improved
  serum AST levels: lower
  serum creatinine levels: lower
Autotransplanted kidney; transplantation after storage
  NGAL levels: significantly decreased
  Tubular lumen areas (tubular dilatation): significantly smaller
Autotransplanted kidney; [4]
  KIM-1 expression levels: significantly lower expression

## COCCCC/C(=N\OCCN)c1ccc(C(F)(F)F)cc1 [fluvoxamine, fluvoxamine maleate]
Isolated kidney; 3, 8 or 24 hours of cold ischemia with Flu vs 2 hours ischemia without Flu
  structural damage after prolonged cold ischemia: less pronounced
Isolated kidney; Custodiol, 2 and 3 hours of cold storage
  increase of tubular damage (tubular lumen areas) from 2 to 3 hours of cold storage: inhibited this increase of damage
Isolated kidney; after 1.5 fold longer or even 10 fold longer preservation time than organs in same solution without fluvoxamine
  less tissue damage by histologic assay: 25%
Isolated kidney; after storage, vs conventional Custodiol
  MCP-1 levels: less elevated
Isolated kidney; cold storage without reperfusion, compound 0.003 mg/mL in preservation solution vs solution alone
  Tubular lumen dilatation: less dilated
Isolated kidney
  reducing, delaying or preventing functional and/or structural damage of a stored organ or tissue (comparison of the three agonists): surprisingly more effective than SA 4503
  mRNA levels of Bcl-2: markedly increased
  mRNA levels of BAX: decreased
Isolated kidney; listed as Fluvoxamine
  reducing, delaying or preventing functional and/or structural damage of a stored organ or tissue (comparison of the three agonists): most successful of the three compounds
Isolated kidney; [2]
  KIM-1 levels: decreased dramatically
Isolated kidney; perfused with FLU, harvested after 2 hours of cold ischemia
  kidney structure on PAS-stained sections: better preserved
Isolated kidney; saline
  KIM-1 levels: milder, though a tendency of decrease is noticed
  NGAL mRNA expression: Efficacy of fluvoxamine in saline was also demonstrated
Autotransplanted kidney; [3]
  Kidney function: substantially improved
  serum AST levels: lower
  serum creatinine levels: lower
Autotransplanted kidney; autotransplanted kidneys, vs vehicle
  Levels of MCP-1: significantly less elevated
Autotransplanted kidney; [5]
  mRNA levels of inflammatory cytokines (IL10, IL-1α, TNFα): decreased
  protein levels of inflammatory cytokines (IL10, IL-1α, TNFα): decreased
Autotransplanted kidney; transplantation after storage
  NGAL levels: significantly decreased
  Tubular lumen areas (tubular dilatation): significantly smaller
Autotransplanted kidney; transplantation after storage, vs conventional preservation fluid (vehicle)
  histological damage on PAS-stained kidney sections: milder histological damage
Autotransplanted kidney; transplantation after storage, listed as FLU
  Tubular lumen areas (tubular dilatation): less dilated
Autotransplanted kidney; [4]
  BAX expression (mRNA): significant decrease
  KIM-1 expression levels: significantly lower expression
  increase of HO-1 expression: prevented
  mRNA levels of Bcl-2: significant increase
Autotransplanted kidney; transplantation after storage, vs vehicle treated kidneys
  apoptotic cells in TUNEL assay: significantly less apoptotic cells
